The values that follow come from ChEMBL document CHEMBL4673218, “Kojyl cinnamate esters are peroxisome proliferator-activated receptor α/γ dual agonists” (Bioorg Med Chem, 2018).

The target of experiment [1] is T1, Peroxisome proliferator-activated receptor gamma (Homo sapiens) (UniProt P37231).
T1 sequence (whole entry): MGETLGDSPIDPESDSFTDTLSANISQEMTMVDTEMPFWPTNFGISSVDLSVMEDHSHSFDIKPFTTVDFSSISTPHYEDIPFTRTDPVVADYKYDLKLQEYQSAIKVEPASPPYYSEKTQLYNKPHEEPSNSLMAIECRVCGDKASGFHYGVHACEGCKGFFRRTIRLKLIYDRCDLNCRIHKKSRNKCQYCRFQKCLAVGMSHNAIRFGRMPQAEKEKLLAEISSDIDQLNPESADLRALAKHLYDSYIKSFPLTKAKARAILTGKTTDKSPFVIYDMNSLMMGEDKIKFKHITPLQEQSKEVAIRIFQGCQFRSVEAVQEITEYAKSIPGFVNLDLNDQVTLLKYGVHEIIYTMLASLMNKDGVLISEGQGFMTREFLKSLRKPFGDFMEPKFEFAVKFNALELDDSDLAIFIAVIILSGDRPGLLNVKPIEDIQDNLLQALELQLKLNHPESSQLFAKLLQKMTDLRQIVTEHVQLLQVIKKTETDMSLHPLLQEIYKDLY
The experiment in a line: (§1) Binding affinity to human recombinant PPARgamma by Cheng-Prusoff equation based competitive binding TR-FRET assay. As to conditions: filed as agonist.

In experiment [2] the target is T2, Peroxisome proliferator-activated receptor gamma (Homo sapiens, UniProt P37231).
T2 sequence (P37231 whole entry): T1 sequence (whole entry)
The description is as §1.

Experiment [3] in a line: Induction of adipogenesis in human AT-MSC assessed as adiponectin secretion at 30 uM in IDX medium incubated for 5 days by ELISA relative to IDX control. Particulars: time 5 day. The format is functional, Adipose tissue derived mesenchymal stem cell.
Experiment [4] addresses T3, Glucocorticoid receptor (Homo sapiens) (UniProt P04150).
T3 sequence (whole entry): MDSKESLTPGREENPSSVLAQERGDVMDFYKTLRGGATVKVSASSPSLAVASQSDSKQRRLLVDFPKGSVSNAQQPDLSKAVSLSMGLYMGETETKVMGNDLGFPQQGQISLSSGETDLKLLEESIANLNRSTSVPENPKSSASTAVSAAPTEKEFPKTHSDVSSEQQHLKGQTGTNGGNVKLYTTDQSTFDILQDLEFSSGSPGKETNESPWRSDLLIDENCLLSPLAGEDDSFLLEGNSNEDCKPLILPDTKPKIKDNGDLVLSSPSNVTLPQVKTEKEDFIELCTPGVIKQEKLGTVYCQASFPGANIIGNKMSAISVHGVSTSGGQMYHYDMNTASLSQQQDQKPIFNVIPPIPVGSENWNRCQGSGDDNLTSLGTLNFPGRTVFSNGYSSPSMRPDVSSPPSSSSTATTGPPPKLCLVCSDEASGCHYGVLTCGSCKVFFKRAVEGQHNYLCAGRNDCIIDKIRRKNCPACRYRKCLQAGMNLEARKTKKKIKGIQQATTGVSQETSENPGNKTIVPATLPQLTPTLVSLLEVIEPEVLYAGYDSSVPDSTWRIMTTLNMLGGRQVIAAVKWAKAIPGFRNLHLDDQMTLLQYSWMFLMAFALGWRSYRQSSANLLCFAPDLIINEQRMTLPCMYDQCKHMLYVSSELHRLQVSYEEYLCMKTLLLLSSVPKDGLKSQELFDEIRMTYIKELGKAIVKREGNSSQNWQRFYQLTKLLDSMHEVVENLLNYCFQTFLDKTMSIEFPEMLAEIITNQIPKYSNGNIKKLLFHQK
As to the kind of experiment: Binding affinity to human glucocorticoid receptor at 30 uM by competitive binding based TR-FRET assay.

The test system of experiment [5] is NHEK. The experiment in a line: Inhibition of UVB-induced MMP1 level in human NHEK cells at 10 uM incubated for 24 hrs by ELISA. Type of experiment: functional, cell-based.
Experiment [6] relates to Adipose tissue derived mesenchymal stem cell. As to the kind of experiment: Induction of adipogenesis in human AT-MSC cells assessed as increase in intracellular lipid accumulation at 30 uM in IDX medium incubated for 5 days by Oil Red O staining based inverted phase microscopy relative to IDX control. The format is functional. As to conditions: time 5.0 day.
Experiment [7] in a line: Induction of adipogenesis in human AT-MSC assessed as adiponectin secretion in IDX medium incubated for 5 days by ELISA. Type of experiment: functional. Particulars: adipose tissue derived mesenchymal stem cell.
In experiment [8] the target is T4, PPAR alpha/gamma (Homo sapiens) (UniProt P37231+Q07869). The experiment in a line: Agonist activity at PPARalpha/PPARgamma in human NHEK cells assessed as upregulation of HMGCR mRNA at 10 uM incubated for 3 days by qRT-PCR analysis. The format is cell-based. As to conditions: time 3.0 day.
The target of experiment [9] is T5, Peroxisome proliferator-activated receptor alpha (Homo sapiens) (UniProt Q07869).
T5 sequence (whole entry): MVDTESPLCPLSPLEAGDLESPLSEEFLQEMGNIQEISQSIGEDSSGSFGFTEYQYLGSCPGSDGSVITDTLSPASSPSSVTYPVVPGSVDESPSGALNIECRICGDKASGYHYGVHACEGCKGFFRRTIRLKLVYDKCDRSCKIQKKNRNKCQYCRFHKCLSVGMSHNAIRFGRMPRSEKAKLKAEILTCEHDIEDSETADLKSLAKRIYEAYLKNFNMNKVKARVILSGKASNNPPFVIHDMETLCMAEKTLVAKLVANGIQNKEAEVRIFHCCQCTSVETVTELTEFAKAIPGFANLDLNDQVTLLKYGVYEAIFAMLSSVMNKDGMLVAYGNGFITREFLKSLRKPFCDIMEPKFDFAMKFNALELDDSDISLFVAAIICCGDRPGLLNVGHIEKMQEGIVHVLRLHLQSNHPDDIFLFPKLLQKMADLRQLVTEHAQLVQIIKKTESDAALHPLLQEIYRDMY
As to the kind of experiment: Binding affinity to human recombinant PPARalpha at 30 uM by competitive binding based TR-FRET assay relative to control. As to conditions: filed as agonist.

For experiment [10], the target named is T6, Peroxisome proliferator-activated receptor delta (Homo sapiens) (UniProt Q03181).
T6 sequence (whole entry): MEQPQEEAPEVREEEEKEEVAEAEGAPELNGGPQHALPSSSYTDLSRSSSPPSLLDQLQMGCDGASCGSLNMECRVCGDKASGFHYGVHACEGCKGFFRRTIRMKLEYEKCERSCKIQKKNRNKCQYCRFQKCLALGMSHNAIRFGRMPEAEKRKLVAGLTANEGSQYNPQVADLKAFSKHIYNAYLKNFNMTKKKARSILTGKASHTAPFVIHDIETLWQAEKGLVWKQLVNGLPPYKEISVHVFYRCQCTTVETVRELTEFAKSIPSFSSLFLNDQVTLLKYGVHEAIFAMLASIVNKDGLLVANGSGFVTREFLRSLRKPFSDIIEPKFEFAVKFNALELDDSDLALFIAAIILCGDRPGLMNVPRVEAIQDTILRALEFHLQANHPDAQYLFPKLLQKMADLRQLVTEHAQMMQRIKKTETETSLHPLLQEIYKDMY
The experiment in a line: Binding affinity to human recombinant PPARdelta at 30 uM by competitive binding based TR-FRET assay.

Experiment [11] concerns the target T4, PPAR alpha/gamma (Homo sapiens). The experiment in a line: Agonist activity at PPARalpha/PPARgamma in human AT-MSC cells assessed as upregulation of HMGCR mRNA at 10 uM incubated for 3 days by qRT-PCR analysis. Type of experiment: cell-based. Particulars: Adipose tissue derived mesenchymal stem cell, filed as agonist, time 3.0 day.
Experiment [12] has the same target. As to the kind of experiment: Agonist activity at PPARalpha/PPARgamma in human AT-MSC cells assessed as upregulation of SCD1 mRNA at 10 uM incubated for 3 days by qRT-PCR analysis. Type of experiment: cell-based. Particulars: Adipose tissue derived mesenchymal stem cell, filed as agonist, time 3.0 day.

Activity calls are given as the source filed them. The rule behind the calls is not given here.

`COc1ccc(OC)c(/C=C/C(=O)OCc2cc(=O)c(O)co2)c1`: the values for the Activity result in experiment [1] and in experiment [9] were “Dose-dependent effect” and 59%, respectively. Also, in experiment [2], the Ki was determined as 7 µM. Also, in experiment [3], the “fold change (FC)” value amounted to 3.83. Further, the result in experiment [4], in experiment [8] and in experiment [10] was inactive. Also, the inhibition result in experiment [5] is “Active”. Further, the result in [6], in experiment [11] and in experiment [12] was Active. Moreover, the 50% effective concentration (EC50) in experiment [7] worked out at 7.6 µM.
